Data reported in patent publication US10786690B2, “Amide derivatives of polycaffeoylquinic acids, process for producing same and uses thereof” (TEMISIS, priority 2016, dated 2020).

Tests used:
IL-8 = IL-8 production by NHEKs in the inflammatory state (PMA), ELISA; assay type: cell-based, human; conditions: PMA 10 ng/ml 24 h, compounds 50 μM, dexamethasone 10 μM, relative to PMA induced control (100%)
Experimental: (§1) The study was carried out on Normal Human Epidermal Keratinocytes (NHEKs) (Lonza, CC-2507, origin: foreskin) in monolayer culture in Epilife medium (Invitrogen, M-EPI-500-A) containing the components of the Human Keratinocyte Growth Supplement (HKGS) mixture (Invitrogen, S-001-K) added separately, except hydrocortisone having anti-inflammatory properties.
(§2) For the quantification of IL-8 and PGE2, the inflammatory state of the NHEKs in culture was induced by treatment with PMA (phorbol myristate acetate/10 ng/ml/H2O) for 24 h. Induction of IL-6 was achieved by treatment with PMA (10 ng/ml/H2O) combined with calcium ionophore A23187 (2 μM/DMSO) in medium containing calcium at a concentration of 0.8 mM. […]
(§3) Quantification of the various inflammatory mediators was carried out with specific kits, based on a standard curve, according to the instructions provided by the kits' suppliers, R&D Systems and Cayman Chemical.
(§4) Before induction of the inflammatory state, the NHEKs were treated with the compounds and reference molecules for 2 h. The inflammatory state was then induced according to the conditions described in the methodology section, the culture supernatants were collected, and the various inflammatory mediators were quantified by the ELISA technique. […]

TNF-α = TNF-α production by NHEKs in the inflammatory state (PMA + calcium ionophore, 0.06 mM Ca2+), ELISA; assay type: cell-based, human; conditions: PMA + calcium ionophore A23187 24 h, compounds 50 μM, dexamethasone 10 μM, relative to induced control
Experimental: as §1, §2, §3, §4

PGE2 = PGE2 production by NHEKs in the inflammatory state (PMA), ELISA; assay type: cell-based, human; conditions: PMA 10 ng/ml 24 h, compounds 50 μM, indomethacin 10 μg/ml, relative to PMA induced control (100%)
Experimental: as §1
For the quantification of IL-8 and PGE2, the inflammatory state of the NHEKs in culture was induced by treatment with PMA (phorbol myristate acetate/10 ng/ml/H2O) for 24 h. Induction of IL-6 was achieved by treatment with PMA (10 ng/ml/H2O) combined with calcium ionophore A23187 (2 μM/DMSO) in medium containing calcium at a concentration of 0.8 mM. TNF-α secretion was induced by a combination of PMA (10 ng/ml/H2O) and calcium ionophore A23187 (2 μM/DMSO) applied for 24 h (TNF-α) in medium containing 0.06 mM calcium. The reference molecules used are dexamethasone (10 μM/H2O) and indomethacin (10 μg/ml/ethanol).
The effect of the compounds was studied by applying them to the keratinocyte culture medium 2 h prior to induction of the inflammatory state as well as during induction (2 h for LTB4, 24 h for IL-8, PGE2, IL-6 and TNF-α).
Each condition was carried out in triplicate cultures and the supernatants were recovered at the end of the various treatments.
as §3
Before induction of the inflammatory state, the NHEKs were treated with the compounds and reference molecules for 2 h. The inflammatory state was then induced according to the conditions described in the methodology section, the culture supernatants were collected, and the various inflammatory mediators were quantified by the ELISA technique.
The effect of the compounds on PGE2 production is presented in FIG. 5 and is expressed as a percentage of the PMA treatment set at 100%.

[1] = system: Normal Human Epidermal Keratinocytes (NHEKs); test: Microscopic observation of NHEK cell survival 48 h after inflammatory treatment; assay type: cell-based
Experimental: The cells, treated and not treated by the compounds to be tested, were observed under an optical microscope 48 h after the following inflammatory treatment: 10 ng/mL PMA/H2O+2 μM calcium ionophore A23187/DMSO.
NHEKs were brought into contact or not with the compounds to be tested. After 2 h, the cells underwent or not an inflammation treatment (10 ng/mL PMA/H2O+2 μM calcium ionophore A23187/DMSO).
The cells were observed under an optical microscope 48 h after the inflammatory treatment.

[2] = system: female SKH-1 hairless mice; test: TPA-induced skin inflammation in female SKH-1 hairless mice, macroscopic visual scoring; assay type: in vivo
Experimental: The study is performed on 18 female SKH-1 hairless mice, weighing roughly 20-25 g and divided into 3 groups (n=6/housed in pairs) under controlled temperature (24±2° C.) and humidity (50±20%) conditions and with a 12-hour reversed light cycle (light from 21:00 to 09:00) (food and water ad libitum).
The compounds to be tested are as follows: • Excipial® ointment (control) • PAT1657 (octyl-isochlorogenamide A) incorporated at 1.33% or 2.67% by mass in Excipial® ointment
The treatment groups are distributed as follows: • G1: induced skin inflammation+daily treatment with vehicle (Excipial® ointment) (Control), • G2: induced skin inflammation+treatment with PAT1657 incorporated at 1.33% by mass in Excipial® ointment (PAT1657/1.33%), • G3: induced skin inflammation+treatment with PAT1657 incorporated at 2.67% by mass in Excipial® ointment (PAT1657/2.67%). Induction and Maintenance of Skin Inflammation
Skin inflammation is induced for each mouse by daily dorsal cutaneous application to Zone A (FIG. 9) for 7 days (day 1 to day 7) of 100 μL of TPA acetone solution at a concentration of 0.2 mg/ml.
It is then maintained by cutaneous application every 2 days for 7 days (day 8 to day 14) of 100 μl of TPA acetone solution.
For the vehicle, the animals (G1) were treated daily by cutaneous application of 0.125 g of ointment on the backs of the mice just off the zone of application of TPA acetone solution (roughly 5 cm^2 area corresponding to zones A and B shown in FIG. 9), for 7 days from day 8 to day 14.
For compound PAT1657, the animals (G2 and G3) were treated by cutaneous application of 0.125 g of ointment on the backs of the mice just off the zone of application of TPA acetone solution (roughly 5 cm^2 area corresponding to zones A and B shown in FIG. 9), on days 8, 11 and 14.
Macroscopic visual scoring of skin inflammation is performed daily for each mouse from day 8 to day 15 by quantifying it according to the following scale (Guenon-Macé et al., 2015):
Macroscopic visual scoring of skin inflammation makes it possible to quantify the following parameters: • degree of skin inflammation in the TPA acetone solution application zone and in the ointment treatment zone corresponding to zone A in FIG. 9, • degree of skin inflammation in the ointment treatment zone and outside the TPA acetone solution application zone corresponding to zone B in FIG. 9, • degree of skin inflammation on the rest of the back corresponding to zone C in FIG. 9, • Overall macroscopic score of skin inflammation (total of the scores of the three zones A, B and C shown in FIG. 9). Result Animal Mortality

[3] = PAT1657 at 1.33% and 2.67% in Excipial ointment, relative to control, from day 10 onwards

## CCCCCCCCNC(=O)[C@]1(O)C[C@@H](OC(=O)/C=C/c2ccc(O)c(O)c2)[C@@H](O)[C@H](OC(=O)/C=C/c2ccc(O)c(O)c2)C1 [PAT1657, (2E,2′E)-((1R,2S,3R,5S)-2,5-dihydroxy-5-(octylcarbamoyl)cyclohexane-1,3-diyl) bis(3-(3,4-dihydroxyphenyl)acrylate)]
IL-8
  IL-8 production: inhibit/reduce IL-8 production to the baseline level
TNF-α
  TNF-α production: most marked effects and are more effective than dexamethasone itself
PGE2
  PGE2 production: very highly significantly decrease
[1]; NHEK cultures 48 h after inflammatory treatment (10 ng/mL PMA + 2 μM calcium ionophore A23187), microscopic observation
  Result at 48 h: cell survival: Confluent culture: 100%
[1]; NHEK cultures 48 h after inflammatory treatment, summary in words
  effect on cell survival / cellular protection against inflammation: strong cellular protection against inflammation
[2]; PAT1657 at 1.33% and 2.67% in Excipial ointment, cutaneous, days 8, 11, 14, relative to control, from day 13 onwards
  degree of skin inflammation, zone A (TPA application zone and treatment zone): significant decrease
[2]; [3]
  degree of skin inflammation, zone C (rest of the back): significant decrease
  overall degree of skin inflammation (zones A, B and C): significant decrease
[2]; PAT1657 at 1.33% and 2.67% in Excipial ointment, relative to control, from day 13 onwards
  degree of skin inflammation, zone B (treatment zone outside TPA application zone): significant decrease
[2]; SKH-1 mice, cutaneous application of ointments
  reaction to application of the products: No reaction was observed
[2]; two doses, cutaneous application every 3 days, curative treatment, dose-dependent effect
  intensity of skin inflammation from a macroscopic point of view: significantly reduced
